Results from patent US12187717B2, “Compound and use thereof in treating autoimmune diseases” (PARENCHYMA BIOTECH INC., priority 2022, dated 2025).

Tests used:
[1] = tested on: intestinal epithelial barrier integrity; experiment: Mucosal healing with FITC-dextran in DSS-induced inflammatory bowel disease model; type: in vivo, C57BL/6 mice; details: 10 mg/kg oral daily, 15th day, 4 hours after FITC-dextran, compared to solvent control
Protocol: In order to investigate mucosal healing effects of the compounds according to an embodiment of the present invention, inflammatory bowel disease was induced in C57BL/6 mice, and a degree of recovery of intestinal epithelial harrier integrity was assessed by administering Compound 6 as follows. On day 0 of the experiment, a 2.0% DSS solution prepared by dissolving 2.0% DSS in sterile distilled water was given for drinking to C57BL/6 mice (11 weeks old, female, 20±2 g) for 7 days. The 2.0% DSS solution was changed at an interval of 2 days. Sterile distilled water was provided for drinking from the 8th day of the experiment. Body weight and severity index were measured at an interval of 2 days from the 0th day of the experiment, so as to confirm the onset of inflammatory bowel disease. […] 4 hours after oral administration, fluorescence was measured in the serum extracted from the heart (fluorometer, excitation 485490 nm, emission […]).

Th17 cells = experiment: IL-17A production of Th17 cells (flex set, flow cytometry); type: cell-based, C57BL/6 mice; details: 1.0 μM, 2.5 μM and 5 μM, 3 days, compared to Comparative Example 1
Protocol: The spleen of C57BL/6 mice (8 to 12 weeks old, female) was excised, pulverized by adding IMDM medium, and then passed through a 40 μm cell strainer (BD Falcon), thereby obtaining a single cell suspension. The single cell suspension was centrifuged (1200 rpm, 5 minutes), and after discarding the supematant, 1 ml of ACK lysis buffer was added, followed by stirring for 1 minute and then washing the same with RPMI medium. After the single cell suspension was centrifuged, T-cells were separated using a Mouse CD4 Naive T cell Enrichment Kit (Invitrogen). The separated T-cells were prepared by resuspending them in RPMI-fetal bovine serum (FBS) 10%+2-ME (mercaptoethanol) medium at 1×10^6/ml. For T-cell activation, 5 μg/ml anti-CD3 (eBioscience™) was dispensed by 100 μl onto a 96-well plate, reacted in a cell incubator (37° C., 5% CO2 incubator) for 4 hours, and washed with phosphate buffered saline to prepare the plate. The T-cells were dispensed by 200 μl onto the prepared plate, and each well was treated with 2 μg/ml of anti-CD28 (eBioscience™), 3 ng/ml of TGFβ-1 (R&D systems), 10 ng/ml of IL-2 (R&D systems), 5 μg/ml of anti-mouse IFN-γ (Bio X cell), and 5 μg/ml of anti-mouse IL-4 (Bio X cell). […]

CYP3A4 = CYP3A4 (Homo sapiens, UniProt P08684); details: 2 days, 10 μM
Protocol: Live human hepatocyte cell lines (Corning, Cat No. 454551) were collected using a plating medium, seeded on a 24-well plate so that a cell density thereof was 0.4×10^6 cells/well, and cultured for 2 to 4 hours. After replacing the plating medium with a hepatocyte culture medium, the hepatocytes were cultured for 24 hours. After culturing for 24 hours, hepatocytes were treated with Compound 6 at 1, 5, 25 µM. The medium containing the compound was changed every 24 hours for 2 days. The cultured cells were recovered to prepare mRNA samples. mRNA was extracted from the recovered cells by a phenol-chloroform sedimentation method using TRIZOL reagent (Invitrogen, Cat No. 15596018). From the isolated RNA, cDNA was synthesized by reverse transcription, followed by measuring drug metabolizing enzymes CYP1A2, CYP2C9, CYP2C19, CYP2B6, and CYP3A4 through real-time PCR analysis using the Quant Studio™ 7 Flex Real-Time PCR System (Applied Biosystems, CA). Relative values of the enzyme expression levels were compared by the ΔΔct method using GAPDH as a control enzyme. Herein, one (1) fold was set using the control. Results are expressed as % of control compared to control sample.

Chain of CYP3A4 (P08684 whole entry): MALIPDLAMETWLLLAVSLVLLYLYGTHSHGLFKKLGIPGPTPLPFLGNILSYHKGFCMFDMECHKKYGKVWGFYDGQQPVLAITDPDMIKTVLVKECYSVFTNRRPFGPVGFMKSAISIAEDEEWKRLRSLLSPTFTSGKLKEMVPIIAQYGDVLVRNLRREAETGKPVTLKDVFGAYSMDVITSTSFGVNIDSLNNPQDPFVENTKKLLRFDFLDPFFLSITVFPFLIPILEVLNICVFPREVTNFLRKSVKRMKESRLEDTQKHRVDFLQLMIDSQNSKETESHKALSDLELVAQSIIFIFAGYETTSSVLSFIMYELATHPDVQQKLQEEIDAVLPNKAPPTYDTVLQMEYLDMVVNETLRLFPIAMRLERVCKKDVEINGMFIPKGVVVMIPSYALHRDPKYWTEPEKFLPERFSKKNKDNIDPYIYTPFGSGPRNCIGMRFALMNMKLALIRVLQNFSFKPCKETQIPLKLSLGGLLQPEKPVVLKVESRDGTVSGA

CYP3A4 activity (CYP3A4): 85.7 % of Control Activity
SMILES: O=C(Cc1c[nH]c2ccc(Cl)cc12)Nc1nc2ccc(N3CCOCC3)cc2s1 [Compound 6, 2-(5-chloro-1H-indol-3-yl)-N-(6-morpholinobenzo[d]thiazol-2-yl)acetamide]
Serum FITC-dextran [1]: significantly decreased | IL-17A production of Th17 cells (Th17 cells): significantly decreased
